Consider nine molecules from ChEMBL document CHEMBL4196026, “Novel Tacrine-Hydroxyphenylbenzimidazole hybrids as potential multitarget drug candidates for Alzheimer's disease” (Eur J Med Chem, 2018).

In general, IC50 refers to the concentration needed to halve the response being measured. What is called inhibition is the share of the control response that was lost under treatment. A word on the Kd: it is the concentration at which binding is half-saturated.

The target of data set [1] is Acetylcholinesterase (Electrophorus electricus, UniProt O42275). Kind of data set: Inhibition of electric eel AChE using acetylthiocholine iodide as substrate preincubated for 15 mins followed by addition of substrate measured after 5 mins.
In data set [2] the target is Amyloid-beta precursor protein (Homo sapiens) (UniProt P05067). Kind of data set: Inhibition of self-induced amyloid beta (1 to 42) (unknown origin) aggregation at 40 uM measured after 24 hrs by ThT fluorescence assay relative to control.
For data set [3], the system named is SH-SY5Y. Description: Neuroprotection against amyloid beta (1 to 42)-induced toxicity in human SH-SY5Y cells assessed as increase in cell viability at 1 uM preincubated for 1 hr followed by amyloid beta (1 to 42) addition and measured after 24 hrs MTT assay. The format is functional, cell-based. (Formazan colour is commonly taken as a measure of viable cells.)

Data set [4] has as its system SH-SY5Y. Description: Neuroprotection against Fe/LAscH(-)-induced toxicity in human SH-SY5Y cells assessed as increase in cell viability at 1 uM preincubated for 1 hr followed by Fe/LAscH(-) addition and measured after 24 hrs MTT assay. Format: functional, cell-based.
Data set [5] concerns SH-SY5Y. Description: Cytotoxicity against human SH-SY5Y cells assessed as reduction in cell viability at 1 uM after 24 hrs MTT assay. Format: cell-based.
Data set [6] in a line: Copper chelating activity assessed as inhibition of Cu2+-induced amyloid beta (1 to 42) aggregation at 40 uM measured after 24 hrs by ThT fluorescence assay relative to control.
Data set [7] can be described thus: Copper chelating activity assessed as inhibition of Cu2+-induced amyloid beta (1 to 42) aggregation at 80 uM measured after 24 hrs by ThT fluorescence assay relative to control.
Data set [8] can be described thus: Metal chelating activity assessed as compound-Cu2+ complex formation at pH 7.4.
The subject of data set [9] is SH-SY5Y. Description: Neuroprotection against amyloid beta (1 to 42)-induced toxicity in human SH-SY5Y cells assessed as increase in cell viability at 0.1 uM preincubated for 1 hr followed by amyloid beta (1 to 42) addition and measured after 24 hrs MTT assay. Format: functional, cell-based.
The subject of data set [10] is SH-SY5Y. Kind of data set: Neuroprotection against Fe/LAscH(-)-induced toxicity in human SH-SY5Y cells assessed as increase in cell viability at 0.1 uM preincubated for 1 hr followed by Fe/LAscH(-) addition and measured after 24 hrs MTT assay. Format: functional, cell-based.
In data set [11] the test system is SH-SY5Y. Description: Cytotoxicity against human SH-SY5Y cells assessed as reduction in cell viability at 0.1 uM after 24 hrs MTT assay. Format: cell-based.
Data set [12] is described as follows: Copper chelating activity assessed as inhibition of Cu2+-induced amyloid beta (1 to 42) aggregation at 50 uM measured after 24 hrs by uranyl acetate staining based TEM analysis.
The target of data set [13] is Amyloid-beta precursor protein (Homo sapiens) (UniProt P05067). Kind of data set: Inhibition of self-induced amyloid beta (1 to 42) (unknown origin) aggregation at 50 uM measured after 24 hrs by uranyl acetate staining based TEM analysis.
For data set [14], the system named is SH-SY5Y. Kind of data set: Cytotoxicity against human SH-SY5Y cells assessed as reduction in cell viability at 2.5 uM after 24 hrs MTT assay. The format is cell-based.
Data set [15] deals with SH-SY5Y. Description: Neuroprotection against Fe/LAscH(-)-induced toxicity in human SH-SY5Y cells assessed as increase in cell viability at 2.5 uM preincubated for 1 hr followed by Fe/LAscH(-) addition and measured after 24 hrs MTT assay. Format: functional, cell-based.
Data set [16] has as its system SH-SY5Y. Kind of data set: Neuroprotection against amyloid beta (1 to 42)-induced toxicity in human SH-SY5Y cells assessed as increase in cell viability at 2.5 uM preincubated for 1 hr followed by amyloid beta (1 to 42) addition and measured after 24 hrs MTT assay. The format is functional, cell-based.

Molecules are shown by their SMILES. Calls of active or inactive are those of the source. The calls are words filed in the database; no cut-off is given here.

Chain of Acetylcholinesterase (O42275 whole entry): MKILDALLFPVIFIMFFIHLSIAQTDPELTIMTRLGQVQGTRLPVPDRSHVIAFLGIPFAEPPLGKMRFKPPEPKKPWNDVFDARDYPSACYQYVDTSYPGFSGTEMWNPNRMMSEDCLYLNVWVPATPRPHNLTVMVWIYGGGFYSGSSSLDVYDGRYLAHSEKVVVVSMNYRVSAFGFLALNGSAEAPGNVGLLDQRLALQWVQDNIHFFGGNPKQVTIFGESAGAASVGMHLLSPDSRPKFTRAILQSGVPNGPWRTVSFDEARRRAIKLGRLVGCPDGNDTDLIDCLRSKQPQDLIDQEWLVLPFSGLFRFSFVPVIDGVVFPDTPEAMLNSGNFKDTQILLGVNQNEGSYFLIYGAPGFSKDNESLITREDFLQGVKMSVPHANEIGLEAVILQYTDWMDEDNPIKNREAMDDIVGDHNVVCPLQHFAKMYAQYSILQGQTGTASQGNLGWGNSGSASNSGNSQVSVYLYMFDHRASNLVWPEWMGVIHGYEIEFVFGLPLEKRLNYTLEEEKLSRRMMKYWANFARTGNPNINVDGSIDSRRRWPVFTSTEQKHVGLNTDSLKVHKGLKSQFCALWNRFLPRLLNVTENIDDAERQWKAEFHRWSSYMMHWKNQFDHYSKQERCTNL
Chain of Amyloid-beta precursor protein (Homo sapiens) (P05067 whole entry): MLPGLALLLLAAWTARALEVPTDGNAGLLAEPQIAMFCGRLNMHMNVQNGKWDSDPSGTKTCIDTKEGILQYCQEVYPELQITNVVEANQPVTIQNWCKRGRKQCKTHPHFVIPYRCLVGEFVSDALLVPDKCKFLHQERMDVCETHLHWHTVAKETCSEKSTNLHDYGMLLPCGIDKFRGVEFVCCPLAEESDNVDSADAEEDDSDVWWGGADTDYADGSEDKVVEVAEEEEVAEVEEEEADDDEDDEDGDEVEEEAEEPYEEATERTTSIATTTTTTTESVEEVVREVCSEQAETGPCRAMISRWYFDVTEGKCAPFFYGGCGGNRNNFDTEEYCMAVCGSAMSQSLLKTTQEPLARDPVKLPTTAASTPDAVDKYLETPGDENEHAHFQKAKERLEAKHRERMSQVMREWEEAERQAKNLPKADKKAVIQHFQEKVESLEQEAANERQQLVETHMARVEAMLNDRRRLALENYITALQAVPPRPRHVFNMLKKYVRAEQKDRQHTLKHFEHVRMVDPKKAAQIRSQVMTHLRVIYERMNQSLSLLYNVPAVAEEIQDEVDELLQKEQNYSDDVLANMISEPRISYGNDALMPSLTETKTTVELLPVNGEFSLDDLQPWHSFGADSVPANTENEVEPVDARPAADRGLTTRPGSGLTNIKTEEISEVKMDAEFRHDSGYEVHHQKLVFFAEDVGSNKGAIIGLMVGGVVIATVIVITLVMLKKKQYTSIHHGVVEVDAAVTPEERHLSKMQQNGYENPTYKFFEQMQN

For the molecule `Oc1ccccc1-c1nc2ccccc2[nH]1`, the IC50 result in data set [1] is given as “Not Active”.
With `O=C(NCCNc1c2c(nc3cc(Cl)ccc13)CCCC2)c1ccc2[nH]c(-c3ccccc3O)nc2c1`, the figures for the inhibition in [2] and in data set [6] were 21.9% and 20.9%, respectively. Further, the outcome in data set [3] was inactive. Also, in data set [4], the result was Active. Further, the Activity entry in [5] was “Non-Toxic”. The IC50 in [1] (read-out: IC50) is 6.3 nM.
For `O=C(NCCCCNc1c2c(nc3ccccc13)CCCC2)c1ccc2[nH]c(-c3ccccc3O)nc2c1`, the inhibition in data set [7] was 65.5%. In data set [1] (read-out: IC50), the IC50 is 208 nM.
For the molecule `O=C(NCCCNc1c2c(nc3cc(Cl)ccc13)CCCC2)c1ccc2[nH]c(-c3ccccc3O)nc2c1`, the inhibition in data set [7] was determined as 55.8%. Besides, the Kd in data set [8] is 0.01 nM. Further, the IC50 in data set [1] (read-out: IC50) worked out at 23.7 nM. The outcome in data set [9] and in data set [10] was Active. Further, in data set [11], the Activity entry is reported as “Non-Toxic”.
Turning to `O=C(NCCCCNc1c2c(nc3cc(Cl)ccc13)CCCC2)c1ccc2[nH]c(-c3ccccc3O)nc2c1`, the result in data set [3] and in data set [4] was Active. Also, in data set [5], the Activity entry is reported as “Non-Toxic”. The half-maximal inhibitory concentration (IC50) in data set [1] (read-out: IC50) worked out at 142 nM.
`O=C(NCC(O)CNc1c2c(nc3cc(Cl)ccc13)CCCC2)c1ccc2[nH]c(-c3ccccc3O)nc2c1` (centres undefined): the result in data set [3] and in data set [4] was Active. Further, in [5], the Activity result is listed as “Non-Toxic”. The IC50 in data set [1] (read-out: IC50) worked out at 18.1 nM.
With `O=C(NCCCNc1c2c(nc3ccccc13)CCCC2)c1ccc2[nH]c(-c3ccccc3O)nc2c1`, the inhibition in data set [7] came out at 77.3%. Besides, the inhibition result in data set [12] and in data set [13] was “Active” each time. In addition, the IC50 in data set [1] (read-out: IC50) is 30.9 nM.
Consider `O=C(NCCNc1c2c(nc3ccccc13)CCCC2)c1ccc2[nH]c(-c3ccccc3O)nc2c1`, for which the inhibition in data set [7] came out at 49.4%. Further, in [1] (read-out: IC50), the half-maximal inhibitory concentration (IC50) was 36.4 nM.
For `O=C(NCC(O)CNc1c2c(nc3ccccc13)CCCC2)c1ccc2[nH]c(-c3ccccc3O)nc2c1` (centres undefined), in data set [7], the inhibition was found to be 59.5%. The Activity entry in [14] is reported as “Non-Toxic”. For the same molecule, the outcome in data set [15] and in data set [16] was Active. The IC50 in data set [1] (read-out: IC50) came out at 16.8 nM.
